In patent EP1377579B1 (Aventis Pharmaceuticals Inc., priority 2000, dated 2002):
Structures can show the parent of a compound that is named as a salt.

Tests used:
cdk4/cyclin D1 = cdk4/cyclin D1 (Homo sapiens, UniProt P11802); experiment: Cyclin-dependent kinase assay, cdk4/cyclin D1; type: biochemical; conditions: cyclin D1/cdk4; GST-pRb substrate, 10 µM ATP
MDA-MB-435 = experiment: In vitro proliferation assay (MTT), MDA-MB-435; type: cell-based, human; conditions: Homo sapiens, MDA-MB-435, MTT assay; value (SD, n) where given; read-out: MB-435 Breast (IC50 µM)
How it was run: (§1)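 A570 readout of DMSO-solubilized MTT formazan after 3-day compound exposure; IC50 from raw data. Cells plated 1000–2500/well and recovered overnight before dosing.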

PC-3 = experiment: In vitro proliferation assay (MTT), PC-3; type: cell-based, human; conditions: Homo sapiens, PC-3, MTT assay; value (SD, n) where given; read-out: PC-3 Prostate (IC50 µM)
How it was run: as §1

cdk1/cyclin B = cdk1/cyclin B (Homo sapiens, UniProt P06493); experiment: Cyclin-dependent kinase assay, cdk1/cyclin B; conditions: CDK1 IC50, nM, Histone H1, 10 µM ATP
Chain of cdk1/cyclin B (P06493 whole entry): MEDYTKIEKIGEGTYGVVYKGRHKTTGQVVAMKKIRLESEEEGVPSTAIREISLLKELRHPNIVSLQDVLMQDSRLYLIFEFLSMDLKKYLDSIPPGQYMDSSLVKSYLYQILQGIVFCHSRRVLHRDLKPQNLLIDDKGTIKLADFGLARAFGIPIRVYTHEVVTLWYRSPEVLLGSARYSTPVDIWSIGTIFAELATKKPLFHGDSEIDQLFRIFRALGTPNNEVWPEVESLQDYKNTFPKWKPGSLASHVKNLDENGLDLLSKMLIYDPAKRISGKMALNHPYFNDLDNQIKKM
Chain of cdk1/cyclin B (P14635 whole entry partner): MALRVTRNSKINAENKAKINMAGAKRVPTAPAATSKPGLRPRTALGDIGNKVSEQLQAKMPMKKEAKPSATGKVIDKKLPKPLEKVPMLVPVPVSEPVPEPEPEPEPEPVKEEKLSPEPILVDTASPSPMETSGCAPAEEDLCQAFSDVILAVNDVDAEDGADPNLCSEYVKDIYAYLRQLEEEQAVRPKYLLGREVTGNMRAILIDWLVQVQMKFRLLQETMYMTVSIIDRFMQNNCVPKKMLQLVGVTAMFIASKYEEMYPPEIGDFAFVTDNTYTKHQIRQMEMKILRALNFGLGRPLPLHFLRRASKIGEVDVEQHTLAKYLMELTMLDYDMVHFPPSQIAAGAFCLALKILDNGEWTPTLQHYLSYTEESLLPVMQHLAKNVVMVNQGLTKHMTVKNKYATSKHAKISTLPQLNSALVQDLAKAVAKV

cdk2/cyclin E = cdk2/cyclin E (Homo sapiens, UniProt P24941); experiment: Cyclin-dependent kinase assay, cdk2/cyclin E; conditions: CDK2 IC50, nM, GST-pRb substrate, 10 µM ATP

Chain of cdk4/cyclin D1 (P11802 whole entry): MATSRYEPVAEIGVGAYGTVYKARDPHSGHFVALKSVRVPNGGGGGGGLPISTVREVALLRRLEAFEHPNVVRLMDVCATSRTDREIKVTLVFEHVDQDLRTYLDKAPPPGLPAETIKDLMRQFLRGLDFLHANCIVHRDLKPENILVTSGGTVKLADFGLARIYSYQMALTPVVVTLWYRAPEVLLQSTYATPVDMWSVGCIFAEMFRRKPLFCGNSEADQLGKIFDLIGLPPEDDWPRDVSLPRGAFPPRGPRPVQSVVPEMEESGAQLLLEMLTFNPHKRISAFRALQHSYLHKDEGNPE
Chain of cdk4/cyclin D1 (P24385 whole entry partner): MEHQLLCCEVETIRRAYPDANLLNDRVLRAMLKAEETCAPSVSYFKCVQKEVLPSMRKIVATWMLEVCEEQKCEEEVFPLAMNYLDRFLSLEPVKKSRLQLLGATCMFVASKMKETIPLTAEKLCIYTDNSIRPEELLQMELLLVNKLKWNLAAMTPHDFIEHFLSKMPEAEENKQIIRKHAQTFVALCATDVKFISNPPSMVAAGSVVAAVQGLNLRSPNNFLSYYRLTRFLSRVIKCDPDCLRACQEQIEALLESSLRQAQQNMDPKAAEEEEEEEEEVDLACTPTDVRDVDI

| SMILES | IC50 (cdk4/cyclin D1) | IC50 (MDA-MB-435) | IC50 (PC-3) | IC50 (cdk1/cyclin B) | IC50 (cdk2/cyclin E) |
| --- | --- | --- | --- | --- | --- |
| N[C@H]1CC[C@H](Nc2nc(NC3CCN(S(=O)(=O)c4c(Cl)cccc4Cl)CC3)c3ncn(C4CCCC4)c3n2)CC1 [compound 121, trans-N^2-(4-Amino-cyclohexyl)-9-cyclopentyl-N^6-[1-(2,6-dichloro-benzenesulfonyl)-piperidin-4-yl]-9H-purine-2,6-diamine dihydrochloride] | 83 nM | 0.66 µM | 0.82 µM | 120 nM | 50 nM |
| CC(C)S(=O)(=O)N1CCC(Nc2nc(N[C@H]3CC[C@H](N)CC3)nc3c2ncn3C2CCCC2)CC1 [compound 125, trans-N^2-(4-Amino-cyclohexyl)-9-cyclopentyl-N^6-[1-(propane-2-sulfonyl)-piperidin-4-yl]-9H-purine-2,6-diamine dihydrochloride] | 62 nM | 1.03 µM | 1.29 µM | 180 nM | 38 nM |
| CCCCS(=O)(=O)N1CCC(Nc2nc(N[C@H]3CC[C@H](N)CC3)nc3c2ncn3C2CCCC2)CC1 [compound 129, trans-N^2-(4-Amino-cyclohexyl)-N^6-[1-(butane-1-sulfonyl)-piperidin-4-yl]-9-cyclopentyl-9H-purine-2,6-diamine dihydrochloride] | 60 nM | 0.46 µM | 0.64 µM | 60 nM | 9 nM |
| CCCS(=O)(=O)N1CCC(Nc2nc(N[C@H]3CC[C@H](N)CC3)nc3c2ncn3C2CCCC2)CC1 [compound 131, trans-N^2-(4-Amino-cyclohexyl)-N^6-[1-(propane-1-sulfonyl)-piperidin-4-yl]-9-cyclopentyl-9H-purine-2,6-diamine dihydrochloride] | 70 nM | 0.89 µM | 1.48 µM | 100 nM | 17 nM |
| N[C@H]1CC[C@H](Nc2nc(NC3CCN(S(=O)(=O)CC(F)(F)F)CC3)c3ncn(C4CCCC4)c3n2)CC1 [compound 133, trans-N^2-(4-Amino-cyclohexyl)-9-cyclopentyl-N^6-[1-(2,2,2-trifluoro-ethanesulfonyl)-piperidin-4-yl]-9H-purine-2,6-diamine dihydrochloride] | 85 nM | 9.1 µM | 8.97 µM | 200 nM | 55 nM |
| N[C@H]1CC[C@H](Nc2nc(NC3CCN(S(=O)(=O)c4cccc(C(=O)O)c4)CC3)c3ncn(C4CCCC4)c3n2)CC1 [compound 135, dihydrochloride] | 62 nM | 3.38 µM | 4.05 µM | 80 nM | 4 nM |
| N[C@H]1CC[C@H](Nc2nc(NC3CCN(S(=O)(=O)c4ccccc4Br)CC3)c3ncn(C4CCCC4)c3n2)CC1 [compound 136, trans-N^2-(4-Amino-cyclohexyl)-9-cyclopentyl-N^6-[1-(2-bromo-benzenesulfonyl)-piperidin-4-yl]-9H-purine-2,6-diamine dihydrochloride] | 10 nM | 0.44 µM | 0.68 µM | 50 nM | 37 nM |
| COc1ccc(S(=O)(=O)N2CCC(Nc3nc(N[C@H]4CC[C@H](N)CC4)nc4c3ncn4C3CCCC3)CC2)cc1OC [compound 137, trans-N^2-(4-Amino-cyclohexyl)-9-cyclopentyl-N^6-[1-(3,4-dimethoxy-benzenesulfonyl)-piperidin-4-yl]-9H-purine-2,6-diamine dihydrochloride] | 144 nM | 0.47 µM | 1.15 µM | 26 nM | 7 nM |
| CCS(=O)(=O)N1CCC(Nc2nc(N[C@H]3CC[C@H](N)CC3)nc3c2ncn3C2CCCC2)CC1 [compound 139, trans-N^2-(4-Amino-cyclohexyl)-9-cyclopentyl-N^6-(1-ethanesulfonyl-piperidin-4-yl)-9H-purine-2,6-diamine dihydrochloride] | 64 nM | 1.19 µM | 1.13 µM | 23 nM | 6 nM |
| N[C@H]1CC[C@H](Nc2nc(NC3CCN(S(=O)(=O)c4ccc(Cl)c([N+](=O)[O-])c4)CC3)c3ncn(C4CCCC4)c3n2)CC1 [compound 140, trans-N^2-(4-Amino-cyclohexyl)-N^6-[1-(4-chloro-3-nitro-benzenesulfonyl)-piperidin-4-yl]-9-cyclopentyl-9H-purine-2,6-diamine dihydrochloride] | 75 nM | 2.76 µM | 4.56 µM | 36 nM | 41 nM |
| CN(C)c1cccc2c(S(=O)(=O)N3CCC(Nc4nc(N[C@H]5CC[C@H](N)CC5)nc5c4ncn5C4CCCC4)CC3)cccc12 [compound 141, trans-N^2-(4-Amino-cyclohexyl)-9-cyclopentyl-N^6-[1-(5-dimethylamino-naphthalene-1-sulfonyl)-piperidin-4-yl]-9H-purine-2,6-diamine dihydrochloride] | 66 nM | 0.86 µM | 1.49 µM | 27 nM | 61 nM |
| N[C@H]1CC[C@H](Nc2nc(NC3CCN(S(=O)(=O)c4ccccc4[N+](=O)[O-])CC3)c3ncn(C4CCCC4)c3n2)CC1 [compound 143, trans-N^2-(4-Amino-cyclohexyl)-9-cyclopentyl-N^6-[1-(2-nitro-benzenesulfonyl)-piperidin-4-yl]-9H-purine-2,6-diamine dihydrochloride] | 154 nM | 0.61 µM | 0.45 µM | 7.5 nM | 28 nM |

Results, then the compound that gave them:

| IC50 (cdk4/cyclin D1) | IC50 (MDA-MB-435) | IC50 (PC-3) | IC50 (cdk1/cyclin B) | IC50 (cdk2/cyclin E) | SMILES |
| --- | --- | --- | --- | --- | --- |
| 590 nM | 0.48 µM | 0.65 µM | 10 nM | 38 nM | N[C@H]1CC[C@H](Nc2nc(NC3CCN(S(=O)(=O)c4ccc(I)cc4)CC3)c3ncn(C4CCCC4)c3n2)CC1 [compound 122, trans-N^2-(4-Amino-cyclohexyl)-9-cyclopentyl-N^6-[1-(4-iodo-benzenesulfonyl)-piperidin-4-yl]-9H-purine-2,6-diamine dihydrochloride] |
| 77 nM | 0.44 µM | 0.56 µM | 10 nM | 26 nM | Cc1ccc(S(=O)(=O)N2CCC(Nc3nc(N[C@H]4CC[C@H](N)CC4)nc4c3ncn4C3CCCC3)CC2)cc1 [compound 124, trans-N^2-(4-Amino-cyclohexyl)-9-cyclopentyl-N^6-[1-(toluene-4-sulfonyl)-piperidin-4-yl]-9H-purine-2,6-diamine dihydrochloride] |
| 55 nM | 19.7 µM | 16.8 µM | 20 nM | 6 nM | N[C@H]1CC[C@H](Nc2nc(NC3CCN(S(=O)(=O)c4ccc(C(=O)O)cc4)CC3)c3ncn(C4CCCC4)c3n2)CC1 [compound 126, trans-4-{4-[2-(4-Amino-cyclohexylamino)-9-cyclopentyl-9H-purin-6-ylamino]-piperidine-1-sulfonyl}-benzoic acid dihydrochloride] |
| 48 nM | 0.61 µM | 0.62 µM | 14 nM | 17 nM | N[C@H]1CC[C@H](Nc2nc(NC3CCN(S(=O)(=O)c4cccc([N+](=O)[O-])c4)CC3)c3ncn(C4CCCC4)c3n2)CC1 [compound 127, trans-N^2-(4-Amino-cyclohexyl)-9-cyclopentyl-N^6-[1-(3-nitro-benzenesulfonyl)-piperidin-4-yl]-9H-purine-2,6-diamine dihydrochloride] |
| 159 nM | 0.8 µM | 2.29 µM | 8 nM | 53 nM | CC(C)(C)c1ccc(S(=O)(=O)N2CCC(Nc3nc(N[C@H]4CC[C@H](N)CC4)nc4c3ncn4C3CCCC3)CC2)cc1 [compound 130, trans-N^2-(4-Amino-cyclohexyl)-N^6-[1-(4-tert-butyl-benzenesulfonyl)-piperidin-4-yl]-9-cyclopentyl-9H-purine-2,6-diamine dihydrochloride] |
| 84 nM | 0.46 µM | 0.76 µM | 200 nM | 35 nM | N[C@H]1CC[C@H](Nc2nc(NC3CCN(S(=O)(=O)c4ccc(OC(F)(F)F)cc4)CC3)c3ncn(C4CCCC4)c3n2)CC1 [compound 134, trans-N^2-(4-Amino-cyclohexyl)-9-cyclopentyl-N^6-[1-(4-trifluoromethoxy-benzenesulfonyl)-piperidin-4-yl]-9H-purine-2,6-diamine dihydrochloride] |
| 69 nM | 0.54 µM | 1.16 µM | 40 nM | 60 nM | N[C@H]1CC[C@H](Nc2nc(NC3CCN(S(=O)(=O)c4ccc(Cl)c(Cl)c4)CC3)c3ncn(C4CCCC4)c3n2)CC1 [compound 138, trans-N^2-(4-Amino-cyclohexyl)-9-cyclopentyl-N^6-[1-(3,4-dichloro-benzenesulfonyl)-piperidin-4-yl]-9H-purine-2,6-diamine dihydrochloride] |
| 47 nM | 0.38 µM | 0.61 µM | < 5 nM | 9 nM | COc1ccc(S(=O)(=O)N2CCC(Nc3nc(N[C@H]4CC[C@H](N)CC4)nc4c3ncn4C3CCCC3)CC2)cc1 [compound 142, trans-N^2-(4-Amino-cyclohexyl)-9-cyclopentyl-N^6-[1-(4-methoxy-benzenesulfonyl)-piperidin-4-yl]-9H-purine-2,6-diamine dihydrochloride] |
